These results are taken from publication PMC11643077, “Synthesis of 1,2,4-Oxadiazin-5(6H)-One Derivatives and Their Biological Investigation as Monoamine Oxidase Inhibitors” (Molecules, 2024).

For one data set, the target named is T1, MAO-A (Homo sapiens, UniProt P21397).
T1 construct: purchased Merck
T1 sequence (P21397 1-527): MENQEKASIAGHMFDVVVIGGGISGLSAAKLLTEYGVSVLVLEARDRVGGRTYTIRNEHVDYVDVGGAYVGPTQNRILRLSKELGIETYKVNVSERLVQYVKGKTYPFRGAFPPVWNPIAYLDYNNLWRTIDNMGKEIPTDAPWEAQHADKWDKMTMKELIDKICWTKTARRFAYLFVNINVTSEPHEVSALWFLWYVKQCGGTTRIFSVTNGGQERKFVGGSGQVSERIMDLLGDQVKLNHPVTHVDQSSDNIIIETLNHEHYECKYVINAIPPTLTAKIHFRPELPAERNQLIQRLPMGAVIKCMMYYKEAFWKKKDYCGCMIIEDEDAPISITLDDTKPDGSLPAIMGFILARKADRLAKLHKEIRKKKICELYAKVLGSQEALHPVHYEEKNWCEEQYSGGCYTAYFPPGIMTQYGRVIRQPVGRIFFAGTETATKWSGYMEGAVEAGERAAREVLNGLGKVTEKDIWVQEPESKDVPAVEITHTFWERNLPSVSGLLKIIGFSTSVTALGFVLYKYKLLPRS
The experiment in a line: MAO-A inhibition, recombinant human enzyme, kynuramine substrate, fluorometric end-point. Format: biochemical. As to conditions: mean ± SD of triplicate, racemic mixtures, NI = no inhibition at 100 µM. On the procedure: (§1) The in vitro inhibition studies were carried out according to the published procedure, and the inhibition potencies were expressed as the IC50 values (Figure 2). […] A variety of C3 substituents were explored in this study, which included the phenyl, benzyl and 5-methylthiophen-2-yl moieties, while different substituents on the phenyl (e.g., CH3, OCH3, Cl, Br, F, CF3, OCF3, NO2, PhO) were considered.
(§2) The inhibition potencies of the 1,2,4-oxadiazin-5(6H)-one derivatives were determined using commercially available recombinant human MAO-A and MAO-B (Merck) according to the published procedure. Stock solutions of all compounds were prepared in DMSO and added to the enzyme reactions to yield a final concentration of 4% DMSO. […] Kynuramine was used as enzyme substrate for both MAO isoforms and was oxidized to ultimately form 4-hydroxyquinoline, which is a fluorescent metabolite. The concentrations of 4-hydroxyquinoline in the reactions were measured at end-point by fluorescence spectrometry (λex = 310 nm; λem = 400 nm). Using this approach, the rates of kynuramine oxidation by MAO were measured in the presence of different concentrations of the test inhibitors (0.003–100 µM) as well as in the absence of inhibitor. […] IC50 values were estimated from these plots and were reported as the mean ± SD of triplicate determinations.

Another data set addresses T2, MAO-B (Homo sapiens, UniProt P27338).
T2 construct: purchased Merck
T2 sequence (P27338 1-520): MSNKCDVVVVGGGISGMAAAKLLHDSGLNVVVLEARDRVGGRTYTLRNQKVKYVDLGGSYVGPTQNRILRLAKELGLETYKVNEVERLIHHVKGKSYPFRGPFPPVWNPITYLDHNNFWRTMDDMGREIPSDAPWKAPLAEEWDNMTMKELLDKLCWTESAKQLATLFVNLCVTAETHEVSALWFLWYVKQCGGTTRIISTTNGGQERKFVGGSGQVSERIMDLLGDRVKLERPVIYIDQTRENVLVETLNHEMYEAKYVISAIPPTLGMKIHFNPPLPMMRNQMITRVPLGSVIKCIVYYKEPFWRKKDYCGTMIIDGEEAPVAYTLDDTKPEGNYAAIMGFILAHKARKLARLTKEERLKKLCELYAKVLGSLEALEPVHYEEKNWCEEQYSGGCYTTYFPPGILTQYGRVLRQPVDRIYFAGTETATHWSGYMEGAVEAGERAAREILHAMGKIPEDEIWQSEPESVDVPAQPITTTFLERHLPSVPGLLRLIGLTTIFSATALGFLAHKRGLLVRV
The experiment in a line: MAO-B inhibition, recombinant human enzyme, kynuramine substrate, fluorometric end-point. Format: biochemical. To be noted: mean ± SD of triplicate, racemic mixtures, NI = no inhibition at 100 µM. On the procedure: as §1, §2

For `Cc1ccc(C2=NOCC(=O)N2)cc1` [Compound 3a, 3-(4-Methylphenyl)-4H-1,2,4-oxadiazin-5(6H)-one], the melting point is 140 to 141 °C. The IC50 on MAO-A came to 36.8 ± 1.83 µM. In addition, at MAO-B, the half-inhibitory concentration (IC50) came to 37.2 ± 0.071 µM.
Take `O=C1CON=C(c2ccc(Br)cc2)N1` [Compound 3b, 3-(4-Bromophenyl)-4H-1,2,4-oxadiazin-5(6H)-one]: the 50% inhibitory concentration (IC50) on MAO-A is 14.2 ± 0.94 µM; at MAO-B it was 13.6 ± 6.63 µM.
In the case of `O=C1CON=C(c2ccc([N+](=O)[O-])cc2)N1` [Compound 3c, 3-(4-Nitrophenyl)-4H-1,2,4-oxadiazin-5(6H)-one], the melting point was 248 to 250 °C. On MAO-A, the IC50 amounted to 17.3 ± 0.594 µM. In addition, on MAO-B, the 50% inhibitory concentration (IC50) is 24.4 ± 2.48 µM.
The corresponding values for `Cc1ccc(C2=NOCC(=O)N2)s1` [Compound 3d, 3-(5-Methylthiophen-2-yl)-4H-1,2,4-oxadiazin-5(6H)-one] are 216 to 218 °C, 34.6 ± 5.47 µM and 16.6 ± 1.67 µM.
In turn, `COc1ccc(C2=NOCC(=O)N2)cc1` [Compound 3e, 3-(4-Methoxyphenyl)-4H-1,2,4-oxadiazin-5(6H)-one] came in with a melting point of 188 to 190 °C. The IC50 on MAO-A was 27.1 ± 3.98 µM. Besides, the half-inhibitory concentration (IC50) on MAO-B was found to be 37.6 ± 9.47 µM.
Turning to `Cc1ccc(C2=NOC(C)C(=O)N2)cc1` (stereo not shown) [Compound 4a, 6-Methyl-3-(4-methylphenyl)-4H-1,2,4-oxadiazin-5(6H)-one], the 50% inhibitory concentration (IC50) at MAO-A was 67 ± 0.007 µM; on MAO-B, 24.5 ± 0.198 µM.
The corresponding values for `CC1ON=C(c2ccc(Br)cc2)NC1=O` (stereo not shown) [Compound 4b, 3-(4-Bromophenyl)-6-methyl-4H-1,2,4-oxadiazin-5(6H)-one] are 37.4 ± 4.18 µM and 27.1 ± 3.37 µM.
The compound `CC1ON=C(c2ccc([N+](=O)[O-])cc2)NC1=O` (stereo not shown) [Compound 4c, 6-Methyl-3-(4-nitrophenyl)-4H-1,2,4-oxadiazin-5(6H)-one] came in with a melting point of 247 to 249 °C. The concentration for half-maximal inhibition (IC50) at MAO-A turned out to be 58.5 ± 4.17 µM. Moreover, the IC50 at MAO-B stood at 14.6 ± 0.092 µM.
The compound `Cc1ccc(C2=NOC(C)C(=O)N2)s1` (stereo not shown) [Compound 4d, 6-Methyl-3-(5-methylthiophen-2-yl)-4H-1,2,4-oxadiazin-5(6H)-one] returned a melting point of 167 to 169 °C. Further, on MAO-A, the IC50 was 46.2 ± 9.22 µM. Moreover, the IC50 on MAO-B is 22.3 ± 0.94 µM.
As to `COc1ccc(C2=NOC(C)C(=O)N2)cc1` (stereo not shown) [Compound 4e, 3-(4-Methoxyphenyl)-6-methyl-4H-1,2,4-oxadiazin-5(6H)-one], the IC50 at MAO-A amounted to 51.2 ± 15.1 µM; at MAO-B it was 20 ± 0.643 µM.
Regarding `CCC1ON=C(c2ccc(C)cc2)NC1=O` (stereo not shown) [Compound 5a, 6-Ethyl-3-(4-methylphenyl)-4H-1,2,4-oxadiazin-5(6H)-one], the IC50 was greater than 100 µM on MAO-A and 4.28 ± 0.318 µM on MAO-B.
On to `CCC1ON=C(c2ccc(Br)cc2)NC1=O` (stereo not shown) [Compound 5b, 3-(4-Bromophenyl)-6-ethyl-4H-1,2,4-oxadiazin-5(6H)-one], for which the IC50 worked out at 35.4 ± 1.54 µM on MAO-A and 5.11 ± 0.308 µM on MAO-B.
In turn, `CCC1ON=C(c2ccc([N+](=O)[O-])cc2)NC1=O` (stereo not shown) [Compound 5c, 6-Ethyl-3-(4-nitrophenyl)-4H-1,2,4-oxadiazin-5(6H)-one] came in with a melting point of 177 to 179 °C. Also, the 50% inhibitory concentration (IC50) on MAO-A was 57.9 ± 9.84 µM. For the same compound, the IC50 at MAO-B is 21 ± 4.09 µM.
For `CCC1ON=C(c2ccc(C)s2)NC1=O` (stereo not shown) [Compound 5d, 6-Ethyl-3-(5-methylthiophen-2-yl)-4H-1,2,4-oxadiazin-5(6H)-one], the melting point lay in the range of 151 to 153 °C. Also, the IC50 at MAO-A is 58.1 ± 5.28 µM. The half-maximal inhibitory concentration (IC50) at MAO-B amounted to 6.14 ± 0.137 µM.
Taken in the same sequence, the figures for `CCC1ON=C(c2ccc(OC)cc2)NC1=O` (stereo not shown) [Compound 5e, 6-Ethyl-3-(4-methoxyphenyl)-4H-1,2,4-oxadiazin-5(6H)-one] were 139 to 141 °C, 44.1 ± 6.05 µM and 6.22 ± 0.596 µM.
Regarding `CCC1ON=C(c2ccccc2)NC1=O` (stereo not shown) [Compound 5g, 6-Ethyl-3-phenyl-4H-1,2,4-oxadiazin-5(6H)-one], the IC50 at MAO-A and at MAO-B was greater than 100 µM in each case.
`CCC1ON=C(c2ccc(F)cc2)NC1=O` (stereo not shown) [Compound 5h, 6-Ethyl-3-(4-fluorophenyl)-4H-1,2,4-oxadiazin-5(6H)-one]: the melting point lay within 153 to 155 °C. Further, the IC50 on MAO-A was 93 ± 3.23 µM. At MAO-B, the concentration for half-maximal inhibition (IC50) worked out at 30.7 ± 2.02 µM.
The corresponding values for `CCC1ON=C(Cc2ccccc2)NC1=O` (stereo not shown) [Compound 5i, 3-Benzyl-6-ethyl-4H-1,2,4-oxadiazin-5(6H)-one] are 97 to 99 °C, greater than 100 µM and greater than 100 µM.
On to `COC(=O)CC1ON=C(c2ccccc2)NC1=O` (stereo not shown) [Compound 6a], for which the half-maximal inhibitory concentration (IC50) at MAO-A and on MAO-B was greater than 100 µM in each case.
Turning to `COC(=O)CC1ON=C(c2ccccn2)NC1=O` (stereo not shown) [Compound 6b], the IC50 at MAO-A is 34.2 ± 6.15 µM; at MAO-B, 23.6 ± 1.11 µM.
The corresponding values for `COC(=O)CC1ON=C(c2ccc([N+](=O)[O-])cc2)NC1=O` (stereo not shown) [Compound 6c] are greater than 100 µM and 52.3 ± 12.7 µM.
The corresponding values for `COC(=O)CC1ON=C(c2ccc(C)s2)NC1=O` (stereo not shown) [Compound 6d] are 40.7 ± 8.83 µM and 33.9 ± 1.44 µM.
Regarding `COC(=O)CC1ON=C(c2ccncc2)NC1=O` (stereo not shown) [Compound 6e], the IC50 at MAO-A and on MAO-B was greater than 100 µM each time.
For the compound `COC(=O)CC1ON=C(c2ccc(C(F)(F)F)cc2)NC1=O` (stereo not shown) [Compound 6f], the concentration for half-maximal inhibition (IC50) at MAO-A is greater than 100 µM; at MAO-B, 22.9 ± 5.27 µM.
Consider `Cc1ccc(C2=NOC(Cc3nc(-c4ccc(C)cc4)no3)C(=O)N2)cc1` (stereo not shown) [Compound 7a], for which, on MAO-A, the IC50 was 54.3 ± 14.3 µM.
As for `O=C1NC(c2ccc(F)cc2)=NOC1Cc1nc(-c2ccc(F)cc2)no1` (stereo not shown) [Compound 7b], the IC50 at MAO-A is greater than 100 µM; at MAO-B, 14.3 ± 3.27 µM.
The corresponding values for `O=C1NC(c2ccc([N+](=O)[O-])cc2)=NOC1Cc1nc(-c2ccc([N+](=O)[O-])cc2)no1` (stereo not shown) [Compound 7c] are 12.9 ± 0.014 µM and 0.371 ± 0.037 µM.
In the case of `O=C1NC(c2ccc(C(F)(F)F)cc2)=NOC1Cc1nc(-c2ccc(C(F)(F)F)cc2)no1` (stereo not shown) [Compound 7d], the 50% inhibitory concentration (IC50) at MAO-A was greater than 100 µM; on MAO-B, 46.3 ± 17.8 µM.
`Cc1ccc(C2=NOC(CC(=O)O)C(=O)N2)cc1` (stereo not shown) [Compound 8a]: the concentration for half-maximal inhibition (IC50) at MAO-A is greater than 100 µM.
For `O=C(O)CC1ON=C(c2ccc(Oc3ccccc3)cc2)NC1=O` (stereo not shown) [Compound 8b], the concentration for half-maximal inhibition (IC50) at MAO-A was 12.7 ± 1.34 µM; on MAO-B, greater than 100 µM.
`COc1ccc(C2=NOC(CC(=O)O)C(=O)N2)cc1` (stereo not shown) [Compound 8c]: the IC50 on MAO-A and at MAO-B was greater than 100 µM each time.
Turning to `O=C(O)CC1ON=C(c2ccc(C(F)(F)F)cc2)NC1=O` (stereo not shown) [Compound 8d], the IC50 on MAO-A and on MAO-B was greater than 100 µM throughout.
On to `O=C(O)CC1ON=C(c2cc(Cl)cc(Cl)c2)NC1=O` (stereo not shown) [Compound 8e], for which the half-maximal inhibitory concentration (IC50) was greater than 100 µM at MAO-A and 62.2 ± 15.7 µM at MAO-B.
For `O=C(O)CC1ON=C(c2cccc(Cl)c2)NC1=O` (stereo not shown) [Compound 8f, 2-(3-(3-Chlorophenyl)-5-oxo-5,6-dihydro-4H-1,2,4-oxadiazin-6-yl)acetic acid], the melting point fell in the range of 211 to 212 °C. The IC50 at MAO-A was greater than 100 µM. Moreover, the half-inhibitory concentration (IC50) at MAO-B was greater than 100 µM.
With `COc1ccc2c(c1)[nH]c1c(C)nccc12` [Harmine, reference compound], the half-inhibitory concentration (IC50) at MAO-B was greater than 100 µM.

What is called IC50 is the concentration needed to halve the response being measured. As usually defined, the melting point is the temperature, or range, at which the solid turns liquid.
